This is an account of results in patent US7247615B2, “Peptide agonists of prostate-specific antigen and uses therefor” (priority 2001, dated 2007).

Holding throughout (format): cell-based, human
In test [1] the test system is T-PSA-3 cells. The test can be described thus: Cytometric Bead Array cytokine production by peptide-stimulated T cells. As to the method:
(§1) Detection of Cytokines. Supernatant of T cells exposed for 24 h to peptide-pulsed infected DC, rV-PSA infected DC, or rV-PSA-3A infected DC, in IL-2-free medium at various responder: stimulator ratios, were screened for secretion of IFN-γ using an ELISA kit (R & D Systems, Minneapolis, Minn.). The results were calculated as pg/ml. A Cytometric Bead Array (CBA) system (BD PharMingen, San Diego, Calif.) was also used to determine the secretion of multiple cytokines by specific T cell lines. The CBA system uses the fluorescence detection by flow cytometry to measure soluble analytes in a particle-based immunoassay. The BD human Th1/Th2 cytokine CBA Kit was employed to measure IL-2, IL-4, IL-5, IL-10, TNF-α, and IFN-γ protein levels in a single sample. The cytokine capture beads were mixed with PE-conjugated detection antibodies and then incubated with recombinant cytokine standards or test samples to form sandwich complexes. The samples results were generated in graphical and tabular format using BD CBA analysis software. The results were calculated as pg/ml.
The cytokine profile of T cells stimulated with APCs pulsed with either the PSA-3 or the PSA-3A peptide was then analyzed. The T cell line derived using the PSA-3 peptide was used in these studies, and the APCs used were autologous B cells. A Cytometric Bead Array (CBA) assay was used for analysis (see Examples section) using supernatant fluids obtained 24 h after stimulation. FIGS. 6A–6C illustrate […] of the 10 internal standards used for the calibration of the results obtained in this assay. FIGS. 6D–6F show the levels of each of six cytokines produced by T cells stimulated with APCs pulsed with no peptide, PSA-3A peptide, and PSA-3 peptide, respectively. […] The results obtained for IL-5 will be discussed below (Conclusions section).

A further test relates to T-PSA-3A cells. The test can be described thus: IFN-γ production by T cell line stimulated with peptide-pulsed DCs (ELISA). The settings on record: peptide 25 μg/ml. As to the method:
as §1
Table 2: Production of IFN-γ by a T cell line stimulated with PSA-3 or agonist PSA-3A peptides. The PSA-specific T cell line T-PSA-3A was used as effector cells at IVS-3. T-PSA-3A cells were stimulated with irradiated HLA-A2 positive allogeneic DCs either pulsed with PSA-3 or PSA-3A peptide at a concentration of 25 μg/ml and an effector-to-APC ratio of 10:1. After 24-h culture supernatants were collected and screened for the secretion of IFN-γ. APC=antigen […].
(In general: In an ELISA, binding on a coated surface is turned into a signal by an enzyme label.)

Another test concerns DCs. The test can be described thus: IL-12 production by peptide-pulsed DCs in the presence of T cells. As to the method: It has been previously shown that the activation of T cells by peptidepulsed DCs is related to the level of IL-12 production by the DCs. Studies were therefore conducted to determine the levels of IL-12 production by DCs pulsed with PSA-3 and PSA-3A peptides in the presence of T cells. […] When DCs pulsed with the PSA3A peptide were incubated with both T cell lines, the DCs incubated with the T-PSA-3A line again produced higher levels of IL-12 than those peptide-pulsed DCs incubated with the T cell line T-PSA-3 (Table 3).

In test [2] the test system is T-PSA-3 cells.
The next test deals with V8T cells.
The mark [3] stands for this setting: T-PSA-3 + peptide-pulsed autologous B cells, 24 h supernatant.

“And” between values parts separate entries of the source, which are not always exact repeats. Equal entries are not always repeated.

Take VLSNDVCAQV (SEQ ID NO:3) [PSA-3A]: the “Production of IL-5” value in the test with T-PSA-3 cells [1] (T cells stimulated with PSA-3A as compared to PSA-3 peptide) is on record as “increase”. Moreover, in the test with T-PSA-3 cells [1] (setting [3]), the “Production of IFN-γ” value was “greater production”, the “Production of IL-2” value is recorded as “greater production”, the “Production of IL-4” value is “Low or undetectable levels” and the “Production of IL-10” value is listed as “Low or undetectable levels”. For the same sequence, the “Production of TNF-α” value in the test on T-PSA-3 cells [1] (setting [3]) was “No TNF-α could be detected”. Besides, the “PRODUCTION OF IFN-γ” value in the test with T-PSA-3A cells (APC DCs, T-PSA-3A T cells present, effector-to-APC 10:1, 24 h, IVS-3) stood at 566 pg/mL. In addition, the “PRODUCTION OF IFN-γ” value in the test with T-PSA-3A cells (APC DCs, no T cell, 24 h) is under 15 pg/mL. For the same sequence, in the test on T-PSA-3A cells (no APC, T-PSA-3A T cells present, 24 h), the “PRODUCTION OF IFN-γ” value is under 15 pg/mL. For the same sequence, the “IL-12 PRODUCTION” value with DCs (APC DC, T cell line T-PSA-3, peptide 25 μg/ml, 10:1, 24 h, IVS-4) came to 6.0 pg/ml/5 × 10^5 DC. Also, the “IL-12 PRODUCTION” value with DCs (APC DC, T cell line T-PSA-3A, peptide 25 μg/ml, 10:1, 24 h, IVS-4) came to 27.5 pg/ml/5 × 10^5 DC. Further, the “IL-12 PRODUCTION” value in the test on DCs (no APC, T cell line T-PSA-3, peptide 25 μg/ml, 24 h) is recorded as under 0.6 pg/ml/5 × 10^5 DC. Besides, the “IL-12 PRODUCTION” value in the test on DCs (no APC, T cell line T-PSA-3A, peptide 25 μg/ml, 24 h) was under 0.6 pg/ml/5 × 10^5 DC. In addition, in the test with T-PSA-3 cells [2], the “Production of IFN-γ by None (no T cells)” value was under 13.0 pg/mL; the “Production of IFN-γ by T-PSA-3” value is 946.6 pg/mL and 915.9 pg/mL. For the same sequence, the “Production of IFN-γ by V8T” value in the test with V8T cells was under 13.0 pg/mL.
